In patent US7482379B2, “Propenoyl hydrazides” (priority 2004, dated 2009):

target: S. mansoni legumain (Schistosoma mansoni, UniProt P09841, N192C); assay: S. mansoni legumain (SmAE) inhibition assay; format: biochemical; settings: not given
Experimental: Studies with the propenoyl hydrazides using the schistosome legumain […], (Schistosoma mansoni asparaginyl endopeptidase) were also performed. […] The actual active site enzyme concentration is unknown. The lyophilized enzyme ([…]) was reconstituted in 1.5 mL 0.5 M sodium acetate, pH 4.5 containing 4 mM DTT, and left to stand at 37° C. for 3-4 hours to allow for auto-activation of the zymogen. In a black 96-well microtiter plate, 50 μL of activated enzyme was added to an equal volume of 0.1 M citrate-phosphate buffer pH 6.8 containing 4 mM DTT. Inhibitor stock solutions (20 mM) were prepared in DMSO. Serial dilutions (using water) of inhibitor were added (as 1 μL aliquots) to yield concentrations of between 2 and 0.00002 μM inhibitor. […] After incubating various inhibitor concentrations with enzyme, 100 μL of the same buffer containing 20 μM substrate (Cbz-Ala-Ala-Asn-AMC) was added to the wells and the reaction monitored at room temperature with linear kinetics up to 20 minutes. Inhibitors are tested in duplicate. A plot of the RFU/min versus the inhibitor concentration [μM] permitted calculation of an IC50 value and estimation of the kobs/[I].

Sequence of S. mansoni legumain (P09841 32-291 N192C): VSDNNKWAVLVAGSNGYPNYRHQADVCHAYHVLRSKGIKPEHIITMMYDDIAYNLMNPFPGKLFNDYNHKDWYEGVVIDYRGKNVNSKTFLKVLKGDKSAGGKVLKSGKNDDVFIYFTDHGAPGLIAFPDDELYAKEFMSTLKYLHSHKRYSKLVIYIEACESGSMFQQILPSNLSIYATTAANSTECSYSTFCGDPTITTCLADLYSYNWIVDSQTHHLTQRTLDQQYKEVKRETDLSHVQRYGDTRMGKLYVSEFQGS

SMILES | IC50 [nM]
C[C@H](NC(=O)OCc1ccccc1)C(=O)N[C@@H](C)C(=O)NN(CC(N)=O)C(=O)/C=C/C(=O)N(Cc1ccccc1)Cc1ccc2ccccc2c1 | 70
CCOC(=O)C=CC(=O)N(CC(N)=O)NC(=O)C(C)NC(=O)C(C)NC(=O)CCCCC1SCC2NC(=O)NC21 (stereo not drawn) [Biotinyl-Ala-Ala-AAsn-CH═CH—COOEt] | 10
C[C@H](NC(=O)OCc1ccccc1)C(=O)N[C@@H](C)C(=O)NN(CC(N)=O)C(=O)/C=C/c1ccco1 [Cbz-Ala-Ala-AAsn-CH═CH-2-furyl, N^2—(N-Benzyloxycarbonylalanylalanyl)-N^1-carbamoylmethyl-N^1-trans-(3-(2-furyl)propenoyl)hydrazine] | > 2000
C[C@H](NC(=O)OCc1ccccc1)C(=O)N[C@@H](C)C(=O)NN(CC(N)=O)C(=O)/C=C/c1cccnc1 [Cbz-Ala-Ala-AAsn-CH═CH-3-Py, N^2—(N-Benzyloxycarbonylalanylalanyl)-N^1-carbamoylmethyl-N^1-trans-(3-(3-pyridyl)propenoyl)hydrazine] | > 2000
C[C@H](NC(=O)OCc1ccccc1)C(=O)N[C@@H](C)C(=O)NN(CC(N)=O)C(=O)/C=C/C(=O)N1CC=C(c2ccccc2)CC1 [Cbz-Ala-Ala-AAsn-CH═CH—CO-(4-Ph-Py), N^2—(N-Benzyloxycarbonylalanylalanyl)-N^1-carbamoylmethyl-N^1-trans-(3-(4-phenyl-5,6-dihydro-2H-pyridin-1-yloxo)propenoyl)hydrazine] | 750
C[C@H](NC(=O)OCc1ccccc1)C(=O)N[C@@H](C)C(=O)NN(CC(N)=O)C(=O)/C=C/C(=O)N1CCCCC1 [Cbz-Ala-Ala-AAsn-CH═CH—CO-Pip, N^2—(N-Benzyloxycarbonylalanylalanyl)-N^1-carbamoylmethyl-N^1-trans-(3-(1-piperidyloxo)propenoyl)hydrazine] | 1000
C[C@H](NC(=O)OCc1ccccc1)C(=O)N[C@@H](C)C(=O)NN(CC(N)=O)C(=O)/C=C/C(=O)N1Cc2ccccc2C1 [Cbz-Ala-Ala-AAsn-CH═CH—CO-isoindoline, N^2—(N-Benzyloxycarbonylalanylalanyl)-N^1-carbamoylmethyl-N^1-trans-(3-(1,3-dihydroisoindol-2-yloxo)propenoyl)hydrazine] | 300
C[C@H](NC(=O)OCc1ccccc1)C(=O)N[C@@H](C)C(=O)NN(CC(N)=O)C(=O)/C=C/C(=O)N(Cc1ccccc1)c1ccccc1 [Cbz-Ala-Ala-AAsn-CH═CH—CON(Bzl)Ph, N^2—(N-Benzyloxycarbonylalanylalanyl)-N^1-carbamoylmethyl-N^1-trans-(3-phenylbenzylcarbamoylpropenoyl)hydrazine] | 70
C[C@H](NC(=O)OCc1ccccc1)C(=O)N[C@@H](C)C(=O)NN(CC(N)=O)C(=O)/C=C/C(=O)N(Cc1ccccc1)Cc1ccc(F)cc1 [Cbz-Ala-Ala-AAsn-CH═CH—CON(Bzl-4-F)Bzl, N^2—(N-Benzyloxycarbonylalanylalanyl)-N^1-trans-(3-benzyl(4-fluorobenzyl)carbamoylpropenoyl)-N^1-carbamoylmethylhydrazine] | 60
COc1ccc(CN(Cc2ccccc2)C(=O)/C=C/C(=O)N(CC(N)=O)NC(=O)[C@H](C)NC(=O)[C@H](C)NC(=O)OCc2ccccc2)cc1 [Cbz-Ala-Ala-AAsn-CH═CH—CON(Bzl-4-OMe)Bzl, N^2—(N-Benzyloxycarbonylalanylalanyl)-N^1-trans-(3-benzyl-(4-methoxybenzyl)carbamoyl)propenoyl-N^1-carbamoylmethylhydrazine] | 90
C[C@H](NC(=O)OCc1ccccc1)C(=O)N[C@@H](C)C(=O)NN(CC(N)=O)C(=O)/C=C/C(=O)N(Cc1ccco1)Cc1ccco1 [Cbz-Ala-Ala-AAsn-CH═CH—CON(CH2-2-furyl)2, N^2—(N-Benzyloxycarbonylalanylalanyl)-N^1-carbamoylmethyl-N^1-trans-(3-bis-(2-furylmethyl)carbamoylpropenoyl)hydrazine] | 900
C[C@H](NC(=O)OCc1ccccc1)C(=O)N[C@@H](C)C(=O)NN(CC(N)=O)C(=O)/C=C/C(=O)N(C)CCc1ccccc1 [Cbz-Ala-Ala-AAsn-CH═CH—CON(CH3)CH2CH2Ph, N^2—(N-Benzyloxycarbonylalanylalanyl)-N^1-carbamoylmethyl-N^1-trans-(3-(Methylphenethylcarbamoyl)propenoyl)hydrazine] | 600
C[C@H](NC(=O)OCc1ccccc1)C(=O)N[C@@H](C)C(=O)NN(CC(N)=O)C(=O)/C=C/C(=O)N(C)c1ccccc1 [Cbz-Ala-Ala-AAsn-CH═CH—CON(CH3)Ph, N^2—(N-Benzyloxycarbonylalanylalanyl)-N^1-carbamoylmethyl-N^1-trans-(3-(methylphenylcarbamoyl)propenoyl)hydrazine] | 60
CCCCN(CCCC)C(=O)/C=C/C(=O)N(CC(N)=O)NC(=O)[C@H](C)NC(=O)[C@H](C)NC(=O)OCc1ccccc1 [Cbz-Ala-Ala-AAsn-CH═CH—CON(nBu)2, N^2—(N-Benzyloxycarbonylalanylalanyl)-N^1-carbamoylmethyl-N^1-trans-(3-dibutylcarbamoylpropenoyl)hydrazine] | 550
C[C@H](NC(=O)OCc1ccccc1)C(=O)N[C@@H](C)C(=O)NN(CC(N)=O)C(=O)/C=C/C(=O)NCc1ccc(F)cc1 [Cbz-Ala-Ala-AAsn-CH═CH—CONH-Bzl-4-F, N^2—(N-Benzyloxycarbonylalanylalanyl)-N^1-carbamoylmethyl-N^1-trans-(3-(4-fluorobenzyl)carbamoylpropenoyl)hydrazine] | 800
C[C@H](NC(=O)OCc1ccccc1)C(=O)N[C@@H](C)C(=O)NN(CC(N)=O)C(=O)/C=C/C(=O)NCc1ccccc1 [Cbz-Ala-Ala-AAsn-CH═CH—CONHBzl, N^2—(N-Benzyloxycarbonylalanylalanyl)-N^1-carbamoylmethyl-N^1-trans-(3-benzylcarbamoylpropenoyl)hydrazine] | 1000
C[C@H](NC(=O)OCc1ccccc1)C(=O)N[C@@H](C)C(=O)NN(CC(N)=O)C(=O)/C=C/C(=O)Nc1ccccc1 [Cbz-Ala-Ala-AAsn-CH═CH—CONHPh, N^2—(N-Benzyloxycarbonylalanylalanyl)-N^1-carbamoylmethyl-N^1-trans-(3-phenylcarbamoylpropenoyl)hydrazine] | 700

same assay, conditions: S. mansoni legumain; 20 min preincubation; Cbz-Ala-Ala-Asn-AMC substrate

SMILES | IC50 [nM]
CC=CC=CC(=O)N(CC(N)=O)NC(=O)C(C)NC(=O)C(C)NC(=O)OCc1ccccc1 (stereo not drawn) [Cbz-Ala-Ala-AAsn-CH═CHCH═CHCH3, N^2—(N-Benzyloxycarbonylalanylalanyl)-N^1-carbamoylmethyl-N^1-trans-trans-hexa-2,4-dienoylhydrazine] | > 2000
CCN(CC)C(=O)/C=C/C(=O)N(CC(N)=O)NC(=O)[C@H](C)NC(=O)[C@H](C)NC(=O)OCc1ccccc1 [Cbz-Ala-Ala-AAsn-CH═CH—CONEt2, N^2—(N-Benzyloxycarbonylalanylalanyl)-N^1-carbamoylmethyl-N^1-trans-(3-diethylcarbamoylpropenoyl)hydrazine] | > 2000

same assay, conditions: S. mansoni legumain; 20 min preincubation; Cbz-Ala-Ala-Asn-AMC substrate; read-out: IC50

SMILES | IC50 [nM]
C[C@H](NC(=O)OCc1ccccc1)C(=O)N[C@@H](C)C(=O)NN(CC(N)=O)C(=O)/C=C/C(=O)N1CCCc2ccccc21 (relative stereo) [N^2—(N-Benzyloxycarbonylalanylalanyl)-N^1-carbamoylmethyl-N^1-trans-(3-(3,4-dihydro-2H-quinolin-1-yloxo)propenoyl)hydrazine] | 200

same assay, conditions: read-out: kobs/[I]

SMILES | kinact/KI [M⁻¹ s⁻¹]
C[C@H](NC(=O)OCc1ccccc1)C(=O)N[C@@H](C)C(=O)NN(CC(N)=O)C(=O)/C=C/C(=O)N(Cc1ccccc1)Cc1ccc2ccccc2c1 | 6100

target: T1, Caspase-7 (Homo sapiens, UniProt P55210); assay: Caspase-7 progress curve inhibition assay; settings: second-order rate constant; Ac-DEVD-AMC substrate; Pipes buffer pH 7.2
T1 sequence (P55210 24-198 limits assumed): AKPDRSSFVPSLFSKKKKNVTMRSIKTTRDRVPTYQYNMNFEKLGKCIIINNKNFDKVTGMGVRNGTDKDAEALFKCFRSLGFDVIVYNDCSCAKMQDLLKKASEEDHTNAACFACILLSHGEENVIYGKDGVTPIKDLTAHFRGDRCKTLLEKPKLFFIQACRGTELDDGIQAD
T1 sequence (P55210 207-303 limits assumed): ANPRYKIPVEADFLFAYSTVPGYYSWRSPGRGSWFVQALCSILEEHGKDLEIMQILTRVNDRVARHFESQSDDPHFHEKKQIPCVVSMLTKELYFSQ

SMILES | k2 Caspase-7 [M⁻¹ s⁻¹]
C/C=C/C=C/C(=O)N(CC(=O)O)NC(=O)[C@@H](NC(=O)OCc1ccccc1)C(C)C (stereo in doubt) [Cbz-Val-AAsp-CH═CH—CH═CH—CH3, N^2—(N-Benzyloxyearbonylvalyl)-N^1-carboxymethyl-N^1-trans-(hexa-2,4-dienoyl)hydrazine] | 56
